Experimental data published in patent US12227501B2, “3-amino-2-[2-(acylamino)pyridin-4-yl]-1,5,6,7-tetrahydro-4h-pyrrolo[3,2-c]pyridin-4-one as CSNK1 inhibitors” (Bayer Aktiengesellschaft, priority 2019, dated 2025).
Several values for one entry are separate records, joined by “and”; a condition that tells them apart may be missing. Equal entries are not always repeated. Where two headings read alike, the source gives them in different places.

What was measured:
Assay type in all cases: biochemical
human CSNK1A1 [1] = target: T1, human CSNK1A1 (Homo sapiens (Human), UniProt P48729); assay: CSNK1A1 Assay 2 (ADP-Glo, 1 μM ATP); conditions: substrate biotin-Ahx-KRRRAL-pS-VASLPGL, read-out: CSNK1A1 Assay 2 IC50 [mol/l] (median)
Outline: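 Full-length human CSNK1A1 as an N-terminal GST fusion (baculovirus/insect cells) with biotinylated peptide substrate biotin-Ahx-KRRRAL-pS-VASLPGL and 1 μM ATP, in HEPES pH 7.5 buffer. Compounds were pre-incubated with enzyme (~0.0375 ng/μL) for 15 min at 22 °C. Generated ADP was read by ADP-Glo luminescence as the activity measure.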

human CSNK1A1 [2] = target: T1, human CSNK1A1; assay: CSNK1A1 High ATP Assay (ADP-Glo, 1 mM ATP); conditions: read-out: CSNK1A1 high ATP assay IC50 [mol/l] (median)
Outline: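 Kinase activity taken as ADP generated, quantified by ADP-Glo luminescence after 1 h ATP depletion and 1 h detection at 22 °C. Enzyme is GST–full-length human CSNK1A1 (insect cell-expressed), pre-bound to compound for 15 min, with phosphopeptide substrate and 1 mM ATP.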

[3] = target: wild-type Epidermal Growth Factor Receptor (EGFR) (Homo sapiens (Human), UniProt P00533); assay: WT-EGFR Kinase Assay (TR-FRET, 2 mM ATP)
[4] = EGFR Wildtyp- 2 mM ATP IC50 [mol/l] (median)
[5] = read-out: EGFR Wildtyp- 2 mM ATP IC50 [mol/l] (median)

wild-type Epidermal Growth Factor Receptor (EGFR), sequence (P00533 669-1210): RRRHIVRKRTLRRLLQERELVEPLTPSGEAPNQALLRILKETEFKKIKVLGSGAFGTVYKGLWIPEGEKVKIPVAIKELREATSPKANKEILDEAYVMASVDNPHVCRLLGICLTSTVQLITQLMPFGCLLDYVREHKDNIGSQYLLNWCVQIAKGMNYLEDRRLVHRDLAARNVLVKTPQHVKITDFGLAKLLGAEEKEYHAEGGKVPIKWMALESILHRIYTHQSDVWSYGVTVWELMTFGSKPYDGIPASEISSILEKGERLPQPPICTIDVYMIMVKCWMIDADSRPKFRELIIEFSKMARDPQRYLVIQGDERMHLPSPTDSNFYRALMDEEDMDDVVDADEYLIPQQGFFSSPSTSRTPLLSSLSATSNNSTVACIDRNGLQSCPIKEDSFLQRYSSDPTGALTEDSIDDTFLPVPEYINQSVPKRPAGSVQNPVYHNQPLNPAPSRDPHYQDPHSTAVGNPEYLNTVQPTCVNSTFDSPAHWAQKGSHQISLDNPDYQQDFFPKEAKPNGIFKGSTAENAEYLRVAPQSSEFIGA
T1 sequence (P48729 whole entry, the tested form may be a part): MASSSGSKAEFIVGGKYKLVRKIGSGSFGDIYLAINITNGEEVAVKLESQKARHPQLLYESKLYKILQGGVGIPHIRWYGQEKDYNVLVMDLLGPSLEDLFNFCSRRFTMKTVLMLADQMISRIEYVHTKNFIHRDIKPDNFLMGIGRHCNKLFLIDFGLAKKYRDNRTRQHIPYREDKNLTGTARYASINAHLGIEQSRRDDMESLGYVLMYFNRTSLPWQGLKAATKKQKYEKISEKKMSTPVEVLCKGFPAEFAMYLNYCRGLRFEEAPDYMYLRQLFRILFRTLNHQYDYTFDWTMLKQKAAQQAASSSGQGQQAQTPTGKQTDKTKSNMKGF

| SMILES | IC50 (human CSNK1A1 [1]) [nM] | IC50 (human CSNK1A1 [2]) [nM] | IC50 [3, 4] | IC50 [3, 5] [nM] |
| --- | --- | --- | --- | --- |
| C[C@H](C(=O)Nc1cc(-c2[nH]c3c(c2Nc2ccccc2)C(=O)N(C)CC3)ccn1)c1ccc(F)cc1 (single isomer, unassigned) [Example 5] | 4.45 | 63.4 |  |  |
| C[C@@H](C(=O)Nc1cc(-c2[nH]c3c(c2Nc2ccccc2)C(=O)N(C)CC3)ccn1)c1ccc(F)cc1 (single isomer, unassigned) [Example 6] | 44 | 1600 | 16.1 µM and 15.6 µM and 18.2 µM and > 20 µM (2×) and 15.9 µM and 17.1 µM |  |
| CN1CCc2[nH]c(-c3ccnc(NC(=O)Cc4ccc(F)cc4)c3)c(Nc3ccccc3)c2C1=O [Example 1, N-[4-(3-anilino-5-methyl-4-oxo-4,5,6,7-tetrahydro-1H-pyrrolo[3,2-c]pyridin-2-yl)pyridin-2-yl]-2-(4-fluorophenyl)acetamide] | 1.97 | 28.4 |  | 1200 |
| CC(C(=O)Nc1cc(-c2[nH]c3c(c2Nc2ccccc2)C(=O)N(C)CC3)ccn1)c1ccc(F)cc1 (stereo not drawn) [Example 4, N-[4-(3-anilino-5-methyl-4-oxo-4,5,6,7-tetrahydro-1H-pyrrolo[3,2-c]pyridin-2-yl)pyridin-2-yl]-2-(4-fluorophenyl)propanamide] | 5.49 | 115 | 12600 nM and 11200 nM | > 20000 |
